Values joined by “and” are separate entries in the source; they are usually repeats but may differ in a detail not shown here. Identical values can stand only once. Like-named read-outs stand apart in the source and are kept apart here. Where a SMILES comes first, the peptide text is derived from it. [ ]: non-standard residue; d: D form. The star is where a group is joined. X2 = CO[C@@H]1NC(=O)CC[C@@H]1N*; X3 = O=C1CC[C@H](N*)[C@@H](O)N1; X1 = O=C1CC[C@H](N*)[C@H](O)N1; Valol = CC(C)[C@@H](CO)N*; Aib = CC(C)(N)C(=O)O
How the values were obtained:
[1] = tested on: SK-OV-3 (ovarian cancer) cells; assay: MTT cell viability assay, SK-OV-3 cells; details: for IC50: read-out: IC50 against SK-OV-3 (Ovarian Cancer)
Procedure: (§1) HCT-8 (colorectal carcinoma), and SK-OV-3 (ovarian cancer) cell lines were obtained from the American Type Culture Collection (ATCC; Manassas, VA, USA). The cells were cultured in RPMI-1640 medium (Cytiva, Marlborough, MA, USA) supplemented with 10% fetal bovine serum (FBS), 100 U/mL penicillin, and streptomycin, and incubated in a humidified atmosphere with 5% CO2 at 37 °C [23].
(§2) Cell viability was determined using the 3-(4,5-dimethylthiazol-2-yl)-2,5-diphenyltetrazolium bromide (MTT) colorimetric assay (Sigma Chemical Co., St. Louis, MO). Cells were seeded in 96-well plates and incubated at 37 °C for 24 h. Subsequently, cells were treated with isolated compounds at concentrations of 2, 20, and 100 μM for an additional 24 h. After treatment, 25 μL of MTT solution (5 mg/mL; Thermo Fisher Scientific, Waltham, MA, USA) was added to each well and incubated for 3 h. The resulting formazan crystals were dissolved in 100 μL of dimethyl sulfoxide, and the absorbance was measured at 550 nm using an ELx808 microplate reader (BioTek Instruments Inc., Winooski, VT, USA).

[2] = tested on: HCT-8 (colon cancer) cells; assay: MTT cell viability assay, HCT-8 cells; details: for IC50: read-out: IC50 against HCT-8 (Colon Cancer)
Procedure: as §1, §2

[3] = MTT colorimetric assay, 96-well plates, treated at 2, 20, and 100 μM for 24 h, absorbance at 550 nm, mean ± standard deviation from triplicate experiments

Structure (SMILES) | IC50 [1, 3] | IC50 [2, 3] | cytotoxicity against SK-OV-3 cells, in words [1] | cytotoxicity against HCT-8 cells, in words [2] | IC50 ([1]; Homo sapiens, SK-OV-3, 24 h) | IC50 ([2]; Homo sapiens, HCT-8, 24 h)
CC(=O)N[C@@H](Cc1c[nH]c2ccccc12)C(=O)NCC(=O)N[C@@H](C)C(=O)NC(C)(C)C(=O)NC(C)(C)C(=O)N[C@@H](CCC(N)=O)C(=O)NC(C)(C)C(=O)NC(C)(C)C(=O)NC(C)(C)C(=O)N[C@@H](CO)C(=O)N[C@@H](CC(C)C)C(=O)NC(C)(C)C(=O)N1CCC[C@H]1C(=O)N[C@H](C(=O)NC(C)(C)C(=O)N[C@@H](CC(C)C)C(=O)N[C@@H](CCC(N)=O)C(=O)N[C@@H](CCC(N)=O)C(=O)N[C@H](CO)C(C)C)C(C)C [Compound 2, bukhansantaibol B] (Ac-WGA[Aib][Aib]Q[Aib][Aib][Aib]SL[Aib]PV[Aib]LQQ-Valol) | 13.8 ± 1 µM | 11.7 ± 0.8 µM |  |  |  | 
CC[C@H](C)[C@H](NC(=O)C(C)(C)NC(=O)[C@@H](NC(=O)[C@@H]1CCCN1C(=O)C(C)(C)NC(=O)[C@H](CC(C)C)NC(=O)[C@H](CO)NC(=O)C(C)(C)NC(=O)C(C)(C)NC(=O)C(C)(C)NC(=O)[C@H](CCC(N)=O)NC(=O)C(C)(C)NC(=O)C(C)(C)NC(=O)[C@H](C)NC(=O)CNC(=O)[C@H](Cc1ccccc1)NC(C)=O)C(C)C)C(=O)N[C@@H](CCC(N)=O)C(=O)N[C@@H](CCC(N)=O)C(=O)N[C@H](CO)C(C)C [Compound 3, bukhansantaibol C] (Ac-FGA[Aib][Aib]Q[Aib][Aib][Aib]SL[Aib]PV[Aib]IQQ-Valol) | 19.6 ± 0.1 µM | 18.5 ± 0.6 µM |  |  |  | 
CC[C@H](C)[C@H](NC(=O)C(C)(C)NC(=O)[C@@H](NC(=O)[C@@H]1CCCN1C(=O)C(C)(C)NC(=O)[C@H](CC(C)C)NC(=O)[C@H](C)NC(=O)C(C)(C)NC(=O)C(C)(C)NC(=O)C(C)(C)NC(=O)[C@H](CCC(N)=O)NC(=O)C(C)(C)NC(=O)C(C)(C)NC(=O)[C@H](C)NC(=O)CNC(=O)[C@H](Cc1c[nH]c2ccccc12)NC(C)=O)C(C)C)C(=O)N[C@@H](CCC(N)=O)C(=O)N[C@@H](CCC(N)=O)C(=O)N[C@H](CO)C(C)C [Compound 4, bukhansantaibol D] (Ac-WGA[Aib][Aib]Q[Aib][Aib][Aib]AL[Aib]PV[Aib]IQQ-Valol) | < 10 µM and 5.7 µM | < 10 µM and 7.7 µM |  |  |  | 
CC[C@H](C)[C@H](NC(=O)C(C)(C)NC(=O)[C@@H](NC(=O)[C@@H]1CCCN1C(=O)C(C)(C)NC(=O)[C@H](CC(C)C)NC(=O)[C@H](CO)NC(=O)C(C)(C)NC(=O)C(C)(C)NC(=O)C(C)(C)NC(=O)[C@H](CCC(N)=O)NC(=O)C(C)(C)NC(=O)C(C)(C)NC(=O)[C@H](C)NC(=O)CNC(=O)[C@H](Cc1ccccc1)NC(C)=O)C(C)C)C(=O)N[C@@H](CCC(=O)O)C(=O)N[C@@H](CCC(N)=O)C(=O)N[C@H](CO)C(C)C [Compound 6, bukhansantaibol F] (Ac-FGA[Aib][Aib]Q[Aib][Aib][Aib]SL[Aib]PV[Aib]IEQ-Valol) | > 50 µM | > 50 µM |  |  |  | 
CC[C@H](C)[C@H](NC(=O)C(C)(C)NC(=O)[C@@H](NC(=O)[C@@H]1CCCN1C(=O)C(C)(C)NC(=O)[C@H](CC(C)C)NC(=O)[C@H](CO)NC(=O)C(C)(C)NC(=O)C(C)(C)NC(=O)C(C)(C)NC(=O)[C@H](CCC(N)=O)NC(=O)C(C)(C)NC(=O)C(C)(C)NC(=O)[C@H](C)NC(=O)CNC(=O)[C@H](Cc1c[nH]c2ccccc12)NC(C)=O)C(C)C)C(=O)N[C@H]1CCC(=O)N[C@H]1O [Compound 7, bukhansantaibol G] (Ac-WGA[Aib][Aib]Q[Aib][Aib][Aib]SL[Aib]PV[Aib]I-X1) | > 50 µM | > 50 µM |  |  |  | 
CC[C@H](C)[C@H](NC(=O)C(C)(C)NC(=O)[C@@H](NC(=O)[C@@H]1CCCN1C(=O)C(C)(C)NC(=O)[C@H](CC(C)C)NC(=O)[C@H](CO)NC(=O)C(C)(C)NC(=O)C(C)(C)NC(=O)C(C)(C)NC(=O)[C@H](CCC(N)=O)NC(=O)C(C)(C)NC(=O)C(C)(C)NC(=O)[C@H](C)NC(=O)CNC(=O)[C@H](Cc1c[nH]c2ccccc12)NC(C)=O)C(C)C)C(=O)N[C@H]1CCC(=O)N[C@@H]1O [Compound 8, bukhansantaibol H] (Ac-WGA[Aib][Aib]Q[Aib][Aib][Aib]SL[Aib]PV[Aib]I-X3) | > 50 µM | > 50 µM |  |  |  | 
CC[C@H](C)[C@H](NC(=O)C(C)(C)NC(=O)[C@@H](NC(=O)[C@@H]1CCCN1C(=O)C(C)(C)NC(=O)[C@H](CC(C)C)NC(=O)[C@H](CO)NC(=O)C(C)(C)NC(=O)C(C)(C)NC(=O)C(C)(C)NC(=O)[C@H](CCC(N)=O)NC(=O)C(C)(C)NC(=O)C(C)(C)NC(=O)[C@H](C)NC(=O)CNC(=O)[C@H](Cc1c[nH]c2ccccc12)NC(C)=O)C(C)C)C(=O)N[C@H]1CCC(=O)N[C@H]1OC [Compound 9, bukhansantaibol I] (Ac-WGA[Aib][Aib]Q[Aib][Aib][Aib]SL[Aib]PV[Aib]I-X2) | > 50 µM | > 50 µM | marked loss of cytotoxicity | marked loss of cytotoxicity |  | 
CC[C@H](C)[C@H](NC(=O)C(C)(C)NC(=O)[C@@H](NC(=O)[C@@H]1CCCN1C(=O)C(C)(C)NC(=O)[C@H](CC(C)C)NC(=O)[C@H](CO)NC(=O)C(C)(C)NC(=O)C(C)(C)NC(=O)C(C)(C)NC(=O)[C@H](CCC(N)=O)NC(=O)C(C)(C)NC(=O)C(C)(C)NC(=O)[C@H](C)NC(=O)CNC(=O)[C@H](Cc1ccccc1)NC(C)=O)C(C)C)C(=O)N[C@H]1CCC(=O)N[C@H]1OC [Compound 10, bukhansantaibol J] (Ac-FGA[Aib][Aib]Q[Aib][Aib][Aib]SL[Aib]PV[Aib]I-X2) | > 50 µM | > 50 µM | marked loss of cytotoxicity | marked loss of cytotoxicity |  | 
CC[C@H](C)[C@H](NC(=O)C(C)(C)NC(C)=O)C(=O)NC(C)(C)C(=O)N[C@@H](Cc1ccc(O)cc1)C(=O)NC(C)(C)C(=O)N[C@@H](CC(C)C)C(=O)NC(C)(C)C(=O)N[C@@H](C)C(=O)NC(C)(C)C(=O)NC(C)(C)C=O [Compound 11, bukhansantaibal A] (Ac-[Aib]I[Aib]Y[Aib]L[Aib]A[Aib][Aib]-aldehyde) | > 50 µM | > 50 µM | inactivity | inactivity |  | 
CC[C@H](C)[C@H](NC(=O)C(C)(C)NC(C)=O)C(=O)NC(C)(C)C(=O)N[C@@H](Cc1ccc(O)cc1)C(=O)NC(C)(C)C(=O)N[C@H](C(=O)NC(C)(C)C(=O)N[C@@H](C)C(=O)NC(C)(C)C(=O)NC(C)(C)C=O)[C@@H](C)CC [Compound 12, bukhansantaibal B] (Ac-[Aib]I[Aib]Y[Aib]I[Aib]A[Aib][Aib]-aldehyde) | > 50 µM | > 50 µM | inactivity | inactivity |  | 
COc1cc([C@@H]2c3cc4c(cc3[C@@H](O[C@@H]3O[C@@H]5CO[C@@H](C)O[C@H]5[C@H](O)[C@H]3O)[C@H]3COC(=O)[C@H]23)OCO4)cc(OC)c1O [Etoposide, reference compound] |  |  |  |  | 37.3 ± 1.8 µM | 33.7 ± 1.5 µM

From publication PMC12388242, “Cytotoxic Peptidic Metabolites Isolated from the Soil-Derived Fungus Trichoderma atroviride” (Molecules, 2025)
